According to article PMC4728427, “Mechanism of allosteric activation of TMEM16A/ANO1 channels by a commonly used chloride channel blocker” (British Journal of Pharmacology, 2016):

Columns and labels:
Xenopus laevis TMEM16A = conditions: +80 mV, ref Reyes et al. (2015); cited from earlier work
[1] = tested on: native CaCCs in rabbit pulmonary artery smooth muscle cells; conditions: cited from earlier work
Mouse TMEM16A = target: T1, Mouse TMEM16A (Mus musculus, UniProt Q8BHY3); assay: Steady-state activation curve (conductance versus Vm, Boltzmann fit); format: cell-based
T1 construct: expressed in transfected cells; host or cells: HEK-293T
T1 sequence (Q8BHY3 1-960): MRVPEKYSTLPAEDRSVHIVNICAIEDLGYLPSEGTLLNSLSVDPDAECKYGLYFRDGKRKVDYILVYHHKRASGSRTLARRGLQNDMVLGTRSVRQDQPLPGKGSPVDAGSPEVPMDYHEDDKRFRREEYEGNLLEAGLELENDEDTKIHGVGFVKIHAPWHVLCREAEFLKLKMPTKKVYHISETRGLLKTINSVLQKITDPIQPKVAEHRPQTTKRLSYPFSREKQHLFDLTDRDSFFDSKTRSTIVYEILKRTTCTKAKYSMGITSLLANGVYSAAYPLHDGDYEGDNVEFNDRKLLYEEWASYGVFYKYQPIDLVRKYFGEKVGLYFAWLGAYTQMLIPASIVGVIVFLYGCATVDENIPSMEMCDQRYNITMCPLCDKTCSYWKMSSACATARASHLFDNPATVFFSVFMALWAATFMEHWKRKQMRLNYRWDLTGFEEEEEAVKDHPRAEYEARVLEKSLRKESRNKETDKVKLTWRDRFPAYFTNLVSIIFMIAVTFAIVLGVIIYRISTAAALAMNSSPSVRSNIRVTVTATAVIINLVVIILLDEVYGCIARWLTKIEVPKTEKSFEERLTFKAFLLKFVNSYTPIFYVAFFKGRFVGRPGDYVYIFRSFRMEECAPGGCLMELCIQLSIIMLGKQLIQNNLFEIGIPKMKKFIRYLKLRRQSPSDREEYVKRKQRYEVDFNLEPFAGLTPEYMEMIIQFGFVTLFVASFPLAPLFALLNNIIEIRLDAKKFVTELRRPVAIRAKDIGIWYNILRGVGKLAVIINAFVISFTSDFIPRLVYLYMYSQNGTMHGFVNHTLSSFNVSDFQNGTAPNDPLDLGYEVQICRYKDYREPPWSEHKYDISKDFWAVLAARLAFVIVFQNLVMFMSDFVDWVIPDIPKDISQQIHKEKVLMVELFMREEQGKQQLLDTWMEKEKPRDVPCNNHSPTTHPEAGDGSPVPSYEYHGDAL
Description: The voltage‐dependence of TMEM16A channels was assessed by constructing conductance (G) versus V m relationships in the presence of various [Ca^2+]i. A 1 s pre‐pulse applied to different V m (from −100 to +180 mV in 40 mV increments) was followed by a 0.5 s tail pulse to −60 mV. These pulses were elicited every 2 s from a holding V m of 0 mV. Tail currents were fitted with a single exponential function and the instantaneous tail current amplitude (I tail) estimated from extrapolation of the fit to the beginning of the tail pulse. G was calculated as G = I tail/(V m − E Cl), and normalized G (G/G max) was plotted against the V m of the pre‐pulse. The G versus V m relationships were fitted with the Boltzmann equation of the following form: (5) G/Gmax=1/1+expzgV0.5−VF/RT,
where z g is the number of gating charges moving through the applied transmembrane electric field during channel activation, and V 0.5 is the voltage at which the G is half‐maximal and depends on the conformational energy required for the channel to open.
To examine the possible effects of A9C on TMEM16A channel [Ca^2+]i‐sensitivity, the conductance versus V m relationships were assessed at various [Ca^2+]i in the absence or presence of various [A9C]ext (Figure 10 and Table 3). In the absence of extracellular A9C, V 0.5 (derived from fit with Equation (5)) shifted progressively to lower values as the [Ca^2+]i was increased from 300 to 1000 nM (Table 3). Extracellular A9C dramatically shifted the steady‐state activation curves to the left (Figure 10 and Table 3) to a similar extent for all [Ca^2+]i tested.

human TMEM16A = target: human TMEM16A; set-up: method as in Bradley et al. (2014); conditions: +80 mV, ref Bradley et al. (2014); cited from earlier work
[2] = ~300 nM [Ca2+]i, 300 μM [A9C]ext
[3] = ~300 nM [Ca2+]i, 1000 μM [A9C]ext
[4] = ~600 nM [Ca2+]i, 300 μM [A9C]ext
[5] = ~600 nM [Ca2+]i, 1000 μM [A9C]ext
[6] = ~1000 nM [Ca2+]i, 300 μM [A9C]ext
[7] = ~1000 nM [Ca2+]i, 1000 μM [A9C]ext

- V 0.5 (Boltzmann fit) (Mouse TMEM16A; [2]): 124 ± 9 (n = 8) mV
- z g (Boltzmann fit) (Mouse TMEM16A; [2]): 0.7 ± 0.1 (n = 8)
- V 0.5 (Boltzmann fit) (Mouse TMEM16A; [3]): 89 ± 7 (n = 14) mV
- z g (Boltzmann fit) (Mouse TMEM16A; [3]): 0.7 ± 0.1 (n = 14)
- V 0.5 (Boltzmann fit) (Mouse TMEM16A; [4]): 45 ± 4 (n = 8) mV
- z g (Boltzmann fit) (Mouse TMEM16A; [4]): 0.7 ± 0.1 (n = 8)
- V 0.5 (Boltzmann fit) (Mouse TMEM16A; [5]): 18 ± 4 (n = 14) mV
- z g (Boltzmann fit) (Mouse TMEM16A; [5]): 0.7 ± 0.1 (n = 14)
- V 0.5 (Boltzmann fit) (Mouse TMEM16A; [6]): −15 ± 8 (n = 5) mV
- z g (Boltzmann fit) (Mouse TMEM16A; [6]): 0.9 ± 0.1 (n = 5)
- V 0.5 (Boltzmann fit) (Mouse TMEM16A; [7]): −22 ± 6 (n = 9) mV
- z g (Boltzmann fit) (Mouse TMEM16A; [7]): 0.9 ± 0.1 (n = 9)
Compound: O=C(O)c1c2ccccc2cc2ccccc12 [A9C, Anthracene‐9‐carboxylic acid]
- Ki (Xenopus laevis TMEM16A): ~90 µM
- E rev of native CaCC currents ([1]; ref Piper and Greenwood (2003)): did not change
- native CaCC tail current increase ([1]; −80 mV, 500 μM A9C, ref Piper and Greenwood, 2003): ~ 3 fold
- Ki (human TMEM16A): ~60 µM
